Target: SIRT6 enzyme (Homo sapiens, UniProt Q8N6T7)
Assay: Measurement of deacetylation activity (SIRT6, AlphaLISA, H3K9(Ac) peptide)
Format: biochemical
Conditions: SIRT6 25 ng/mL, H3K9(Ac) biotin peptide 2 nM, NAD 10 μM, room temperature 30 minutes, duplicate
Method in brief: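 SIRT6 (25 ng/mL final) in Tris-HCl pH 8.0 buffer with compound (e.g. 0.046–100 μM final) reacted with biotin-H3K9(Ac) peptide (2 nM) and NAD+ (10 μM), 30 min, room temperature. Stopped with nicotinamide plus AlphaLISA anti-unmodified H3K9/K27 beads, 60 min; EC150 (150% relative activity) from sigmoidal fit.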

SIRT6 enzyme, sequence (Q8N6T7 whole entry, species assumed): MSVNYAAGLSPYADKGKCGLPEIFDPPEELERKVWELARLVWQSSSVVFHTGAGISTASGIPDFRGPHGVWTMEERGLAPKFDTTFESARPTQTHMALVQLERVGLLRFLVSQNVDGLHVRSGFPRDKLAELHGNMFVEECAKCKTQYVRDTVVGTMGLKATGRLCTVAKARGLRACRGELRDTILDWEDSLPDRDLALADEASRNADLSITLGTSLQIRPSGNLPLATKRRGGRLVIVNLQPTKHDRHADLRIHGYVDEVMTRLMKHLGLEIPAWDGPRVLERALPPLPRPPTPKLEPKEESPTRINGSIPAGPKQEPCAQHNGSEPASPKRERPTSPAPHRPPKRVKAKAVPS

Row | SMILES | EC150 (the concentration of the compound showing a relative enzyme activity of 150%) [μm]
1 | Cc1ccc2oc(N3[C@@H]4COC[C@H]3c3sc(NC(=O)NCC(C)(C)O)nc3C4)nc2c1 [Example 145, N-(2-hydroxy-2-methylpropyl)-N′-[(4S,8S)-10-(5-methyl-1,3-benzoxazol-2-yl)-4,7,8,9-tetrahydro-5H-4,8-epiminooxocino[5,4-d][1,3]thiazol-2-yl]urea] | 2.2
2 | CC(C)(O)CNC(=O)Nc1nc2c(s1)[C@@H]1COC[C@H](C2)N1c1nc2cc(F)c(F)cc2o1 [Example 146, N-[(4S,8S)-10-(5,6-difluoro-1,3-benzoxazol-2-yl)-4,7,8,9-tetrahydro-5H-4,8-epiminooxocino[5,4-d][1,3]thiazol-2-yl]-N′-(2-hydroxy-2-methylpropyl)urea] | 1.9
3 | C[C@H](CO)NC(=O)Nc1nc2c(s1)[C@@H]1COC[C@H](C2)N1c1nc2cc(F)cc(F)c2o1 [Example 147, N-[(4S,8S)-10-(5,7-difluoro-1,3-benzoxazol-2-yl)-4,7,8,9-tetrahydro-5H-4,8-epiminooxocino[5,4-d][1,3]thiazol-2-yl]-N′-[(2R)-1-hydroxypropan-2-yl]urea] | 3.3
4 | Cc1cc2nc(N3[C@@H]4COC[C@H]3c3sc(NC(=O)N[C@H](C)CO)nc3C4)oc2cc1C [Example 148, N-[(4S,8S)-10-(5,6-dimethyl-1,3-benzoxazol-2-yl)-4,7,8,9-tetrahydro-5H-4,8-epiminooxocino[5,4-d][1,3]thiazol-2-yl]-N′-[(2R)-1-hydroxypropan-2-yl]urea] | 0.95
5 | O=C(Nc1nc2c(s1)[C@@H]1COC[C@H](C2)N1c1nc2cc(Cl)ccc2o1)N[C@H]1CC[C@H](O)CC1 [Example 149, N-[(4S,8S)-10-(5-chloro-1,3-benzoxazol-2-yl)-4,7,8,9-tetrahydro-5H-4,8-epiminooxocino[5,4-d] [1,3]thiazol-2-yl]-N′-[(1r,4r)-4-hydroxycyclohexyl]urea] | 0.45
6 | O=C(NCC1(O)CCOCC1)Nc1nc2c(s1)[C@@H]1COC[C@H](C2)N1c1nc2cc(Cl)ccc2o1 [Example 150, N-[(4S,8S)-10-(5-chloro-1,3-benzoxazol-2-yl)-4,7,8,9-tetrahydro-5H-4,8-epiminooxocino[5,4-d][1,3]thiazol-2-yl]-N′-[(4-hydroxyoxan-4-yl)methyl]urea] | 0.43
7 | COc1ccc2oc(N3[C@@H]4COC[C@H]3c3sc(NC(=O)N[C@H]5CCOC5)nc3C4)nc2c1 [Example 151, N-[(4S,8S)-10-(5-methoxy-1,3-benzoxazol-2-yl)-4,7,8,9-tetrahydro-5H-4,8-epiminooxocino[5,4-d][1,3]thiazol-2-yl]-N′-[(3S)-oxolan-3-yl]urea] | 0.78
8 | C[C@H](CO)NC(=O)Nc1nc2c(s1)C1CCC(C2)N1c1nc2cc(S(C)(=O)=O)ccc2o1 (stereo partly drawn) [Example 152, N-[(2R)-1-hydroxypropan-2-yl]-N′-{9-[5-(methanesulfonyl)-1,3-benzoxazol-2-yl]-5,6,7,8-tetrahydro-4H-5,8-epiminocyclohepta[d][1,3]thiazol-2-yl}urea] | 2.7
9 | C[C@@H](O)CNC(=O)Nc1nc2c(s1)CN(c1cc(C3CCC(F)(F)CC3)on1)CC2 [Example 153, N-{5-[5-(4,4-difluorocyclohexyl)-1,2-oxazol-3-yl]-4,5,6,7-tetrahydro[1,3]thiazolo[5,4-c]pyridin-2-yl}-N′-[(2R)-2-hydroxypropyl]urea] | 2.1
10 | C[C@H](CO)NC(=O)Nc1nc2c(s1)[C@@H]1COC[C@H](C2)N1c1cc(-c2ccc(F)cc2)on1 [Example 154, N-{(4S,8S)-10-[5-(4-fluorophenyl)-1,2-oxazol-3-yl]-4,7,8,9-tetrahydro-5H-4,8-epiminooxocino[5,4-d][1,3]thiazol-2-yl}-N′-[(2R)-1-hydroxypropan-2-yl]urea] | 0.82
11 | O=C(Nc1nc2c(s1)[C@@H]1COC[C@H](C2)N1c1cc(-c2ccc(F)cc2)on1)N[C@@H]1CCOC1 [Example 155] | 0.51
12 | C[C@H](CO)NC(=O)Nc1nc2c(s1)[C@@H]1COC[C@H](C2)N1c1cc(-c2cccc(C(F)F)c2)on1 [Example 156, N-[(4S,8S)-10-{5-[3-(difluoromethyl)phenyl]-1,2-oxazol-3-yl}-4,7,8,9-tetrahydro-5H-4,8-epiminooxocino[5,4-d][1,3]thiazol-2-yl]-N′-[(2R)-1-hydroxypropan-2-yl]urea] | 1
13 | O=C(Nc1nc2c(s1)[C@@H]1COC[C@H](C2)N1c1cc(C2CCC(F)(F)CC2)on1)N[C@@H]1CCOC1 [Example 157, N-{(4S,8S)-10-[5-(4,4-difluorocyclohexyl)-1,2-oxazol-3-yl]-4,7,8,9-tetrahydro-5H-4,8-epiminooxocino[5,4-d][1,3]thiazol-2-yl}-N′-[(3R)-oxolan-3-yl]urea] | 4.6
14 | O=C(Nc1nc2c(s1)[C@@H]1COC[C@H](C2)N1c1cc(-c2ccc(F)cc2)on1)N[C@H]1C[C@@H](O)C1 [Example 158, N-{(4S,8S)-10-[5-(4-fluorophenyl)-1,2-oxazol-3-yl]-4,7,8,9-tetrahydro-5H-4,8-epiminooxocino[5,4-d][1,3]thiazol-2-yl}-N′-[(1s,3R)-3-hydroxycyclobutyl]urea] | 1.1
15 | O=C(Nc1nc2c(s1)[C@@H]1COC[C@H](C2)N1c1cc(-c2ccc(F)cc2)on1)N[C@H]1CC[C@H](O)CC1 [Example 159, N-{(4S,8S)-10-[5-(4-fluorophenyl)-1,2-oxazol-3-yl]-4,7,8,9-tetrahydro-5H-4,8-epiminooxocino[5,4-d][1,3]thiazol-2-yl}-N′-[(1r,4r)-4-hydroxycyclohexyl]urea] | 1.3
16 | CC(C)(CO)NC(=O)Nc1nc2c(s1)[C@@H]1COC[C@H](C2)N1c1cc(-c2ccc(F)cc2)on1 [Example 160, N-{(4S,8S)-10-[5-(4-fluorophenyl)-1,2-oxazol-3-yl]-4,7,8,9-tetrahydro-5H-4,8-epiminooxocino[5,4-d][1,3]thiazol-2-yl}-N′-(1-hydroxy-2-methylpropan-2-yl)urea] | 3.2
17 | O=C(Nc1nc2c(s1)[C@@H]1COC[C@H](C2)N1c1cc(-c2ccc(F)cc2)on1)NC1CCOCC1 [Example 161, N-{(4S,8S)-10-[5-(4-fluorophenyl)-1,2-oxazol-3-yl]-4,7,8,9-tetrahydro-5H-4,8-epiminooxocino[5,4-d][1,3]thiazol-2-yl}-N′-oxan-4-ylurea] | 0.97
18 | COc1cccc(-c2cc(N3[C@@H]4COC[C@H]3c3sc(NC(=O)N[C@H]5CCOC5)nc3C4)no2)n1 [Example 162, N-{(4S,8S)-10-[5-(6-methoxypyridin-2-yl)-1,2-oxazol-3-yl]-4,7,8,9-tetrahydro-5H-4,8-epiminooxocino[5,4-d][1,3]thiazol-2-yl}-N′-[(3S)-oxolan-3-yl]urea] | 3.3
19 | COc1cccc(-c2cc(N3[C@@H]4COC[C@H]3c3sc(NC(=O)N[C@@H]5CCOC5)nc3C4)no2)n1 [Example 163, N-{(4S,8S)-10-[5-(6-methoxypyridin-2-yl)-1,2-oxazol-3-yl]-4,7,8,9-tetrahydro-5H-4,8-epiminooxocino[5,4-d][1,3]thiazol-2-yl}-N′-[(3R)-oxolan-3-yl]urea] | 1.6
20 | COc1cccc(-c2cc(N3[C@@H]4COC[C@H]3c3sc(NC(=O)N[C@@H]5CCOC5)nc3C4)no2)c1 [Example 164, N-{(4S,8S)-10-[5-(3-methoxyphenyl)-1,2-oxazol-3-yl]-4,7,8,9-tetrahydro-5H-4,8-epiminooxocino[5,4-d][1,3]thiazol-2-yl}-N′-[(3R)-oxolan-3-yl]urea] | 2.6
21 | O=C(Nc1nc2c(s1)[C@@H]1COC[C@H](C2)N1c1cc(-c2ccc(F)cc2)on1)NC1CCS(=O)(=O)CC1 [Example 165, N-(1,1-dioxo-1λ^6-thian-4-yl)-N′-{(4S,8S)-10-[5-(4-fluorophenyl)-1,2-oxazol-3-yl]-4,7,8,9-tetrahydro-5H-4,8-epiminooxocino[5,4-d][1,3]thiazol-2-yl}urea] | 0.41
22 | O=C(Nc1nc2c(s1)[C@@H]1COC[C@H](C2)N1c1ncc(-c2cccc(C(F)F)c2)o1)N[C@H]1C[C@H](O)C1 [Example 166, N-(10-{5-[3-(difluoromethyl)phenyl]-1,3-oxazol-2-yl}-4,7,8,9-tetrahydro-5H-4,8-epiminooxocino[5,4-d][1,3]thiazol-2-yl)-N′-[(1r,3r)-3-hydroxycyclobutyl]urea] | 0.21
23 | O=C(Nc1nc2c(s1)[C@@H]1COC[C@H](C2)N1c1ncc(-c2cccc(OC(F)F)c2)o1)N[C@H]1C[C@H](O)C1 [Example 167, N-[(4S,8S)-10-{5-[3-(difluoromethoxy)phenyl]-1,3-oxazol-2-yl}-4,7,8,9-tetrahydro-5H-4,8-epiminooxocino[5,4-d][1,3]thiazol-2-yl]-N′-[(1r,3S)-3-hydroxycyclobutyl]urea] | 0.43

Reference: patent US11981686B2, “Urea compound having substituent” (DAIICHI SANKYO COMPANY, LIMITED, priority 2019, dated 2024)
